From patent publication US12297190B2, “Modulators of STING (stimulator of interferon genes)” (PFIZER INC., priority 2019, dated 2025)

These compounds were tested against R232-STING (Homo sapiens, UniProt Q86WV6, H232R) (assay: biochemical).
Chain of R232-STING (Q86WV6 155-341 H232R): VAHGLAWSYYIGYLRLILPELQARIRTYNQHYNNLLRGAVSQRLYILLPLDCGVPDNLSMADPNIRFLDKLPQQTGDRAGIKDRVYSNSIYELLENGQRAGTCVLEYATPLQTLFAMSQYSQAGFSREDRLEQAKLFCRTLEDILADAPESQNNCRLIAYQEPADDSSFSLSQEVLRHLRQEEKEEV

Ki | SMILES
806 nM | CCN(CCC#N)CCn1ncc2c(-c3nc(-c4cc(C)nn4CC)n[nH]3)cc(C(N)=O)cc21 [ZZZ104, 1-{2-[(2-cyanoethyl)(ethyl)amino]ethyl}-4-[3-(1-ethyl-3-methyl-1H-pyrazol-5-yl)-1H-1,2,4-triazol-5-yl]-1H-indazole-6-carboxamide]
954 nM | CCn1nc(C)cc1-c1n[nH]c(-c2cc(C(N)=O)cc3c2cnn3CCN(C)CCO)n1 [ZZZ109, 4-[3-(1-ethyl-3-methyl-1H-pyrazol-5-yl)-1H-1,2,4-triazol-5-yl]-1-{2-[(2-hydroxyethyl)(methyl)amino]ethyl}-1H-indazole-6-carboxamide]
731 nM | CCn1nc(C)cc1-c1n[nH]c(-c2cc(C(N)=O)cc3c2cnn3CCN2C[C@@H]3C[C@H]2CO3)n1 [ZZZ113, 4-[3-(1-ethyl-3-methyl-1H-pyrazol-5-yl)-1H-1,2,4-triazol-5-yl]-1-{2-[(1S,4S)-2-oxa-5-azabicyclo[2.2.1]heptan-5-yl]ethyl}-1H-indazole-6-carboxamide]
191 nM | CCn1nc(C)cc1-c1nc(CN)c(-c2nc(C(N)=O)cc3c2cnn3C)o1 [ZZZ051, 4-[4-(aminomethyl)-2-(1-ethyl-3-methyl-1H-pyrazol-5-yl)-1,3-oxazol-5-yl]-1-methyl-1H-pyrazolo[4,3-c] pyridine-6-carboxamide]
976 nM | CCn1nc(C)cc1-c1nnc(-c2cc(C(N)=O)cc3c2cnn3C[C@@H](C)C2CCNCC2)[nH]1 [ZZZ076, 4-[5-(1-ethyl-3-methyl-1H-pyrazol-5-yl)-4H-1,2,4-triazol-3-yl]-1-[(2S)-2-(piperidin-4-yl)propyl]-1H-indazole-6-carboxamide]
948 nM | CCn1nc(C)cc1-c1nnc(-c2cc(C(N)=O)cc3c2cnn3CC[C@@H]2COCCN2)[nH]1 [ZZZ059, 4-[5-(1-ethyl-3-methyl-1H-pyrazol-5-yl)-4H-1,2,4-triazol-3-yl]-1-{2-[(3R)-morpholin-3-yl]ethyl}-1H-indazole-6-carboxamide]
501 nM | CCn1nc(CO)cc1-c1nc(-c2nc(C(N)=O)cc3[nH]ncc23)n(C)n1 [ZZZ082, 4-{3-[1-ethyl-3-(hydroxymethyl)-1H-pyrazol-5-yl]-1-methyl-1H-1,2,4-triazol-5-yl}-1H-pyrazolo[4,3-c]pyridine-6-carboxamide]
> 990 nM | CCn1nc(C)cc1-c1nnc(-c2cc(C(N)=O)cc3c2cnn3CC[C@H]2CCCCN2C)[nH]1 (racemic) [ZZZ023, 4-[5-(1-ethyl-3-methyl-1H-pyrazol-5-yl)-4H-1,2,4-triazol-3-yl]-1-{2-[(2R)-1-methylpiperidin-2-yl]ethyl}-1H-indazole-6-carboxamide]
> 990 nM | CCn1nc(C)cc1-c1nnc(-c2cc(C(N)=O)cc3c2cnn3CC2(CN(C)C)CC2)[nH]1 [ZZZ028, 1-({1-[(dimethylamino)methyl]cyclopropyl}methyl)-4-[5-(1-ethyl-3-methyl-1H-pyrazol-5-yl)-4H-1,2,4-triazol-3-yl]-1H-indazole-6-carboxamide]
> 990 nM | CCn1nc(C)cc1-c1nnc(-c2cc(C(N)=O)cc3[nH]ncc23)[nH]1 [ZZZ001, 4-[5-(1-ethyl-3-methyl-1H-pyrazol-5-yl)-4H-1,2,4-triazol-3-yl]-1H-indazole-6-carboxamide]
> 90 nM | CCn1nc(C(=O)O)cc1-c1cnc(-c2cc(C(N)=O)cc3c2cnn3C)[nH]1 [ZZZ124, 5-[2-(6-carbamoyl-1-methyl-1H-indazol-4-yl)-1H-imidazol-5-yl]-1-ethyl-1H-pyrazole-3-carboxylic acid]
831 nM | CCn1nc(C)cc1-c1n[nH]c(-c2cc(C(N)=O)cc3c2cnn3CCN2C[C@H](O)[C@H]2C)n1 [ZZZ091, 4-[3-(1-ethyl-3-methyl-1H-pyrazol-5-yl)-1H-1,2,4-triazol-5-yl]-1-{2-[(2R,3S)-3-hydroxy-2-methylazetidin-1-yl]ethyl}-1H-indazole-6-carboxamide]
> 990 nM | CCn1nc(C)cc1-c1nnc(-c2cc(C(N)=O)cc3c2cnn3CC(C)(C)CN(C)C)[nH]1 [ZZZ013, 1-[3-(dimethylamino)-2,2-dimethylpropyl]-4-[5-(1-ethyl-3-methyl-1H-pyrazol-5-yl)-4H-1,2,4-triazol-3-yl]-1H-indazole-6-carboxamide]
> 990 nM | CCn1nc(C)cc1-c1nnc(-c2cc(C(N)=O)cc3c2cnn3C[C@@H](C)N(C)C)[nH]1 [ZZZ015, 1-[(2R)-2-(dimethylamino)propyl]-4-[5-(1-ethyl-3-methyl-1H-pyrazol-5-yl)-4H-1,2,4-triazol-3-yl]-1H-indazole-6-carboxamide]
561 nM | CCn1nc(C)cc1-c1nnc(-c2cc(C(N)=O)cc3c2cnn3CCCN2CCO[C@@H](C)C2)[nH]1 (racemic) [ZZZ029, 4-[5-(1-ethyl-3-methyl-1H-pyrazol-5-yl)-4H-1,2,4-triazol-3-yl]-1-{3-[(2S)-2-methylmorpholin-4-yl]propyl}-1H-indazole-6-carboxamide]
> 990 nM | Cc1cc(-c2n[nH]c(-c3nc(C(N)=O)cc4c3cnn4C)n2)n(CCCN)n1 [ZZZ132, 4-{3-[1-(3-aminopropyl)-3-methyl-1H-pyrazol-5-yl]-1H-1,2,4-triazol-5-yl}-1-methyl-1H-pyrazolo[4,3-c]pyridine-6-carboxamide]

Ki | SMILES
> 990 nM | CCn1nc(C)cc1-c1nnc(-c2cc(C(N)=O)cc3c2cnn3Cc2noc3c2CNCC3)[nH]1 [ZZZ068, 4-[5-(1-ethyl-3-methyl-1H-pyrazol-5-yl)-4H-1,2,4-triazol-3-yl]-1-[(4,5,6,7-tetrahydro[1,2]oxazolo[4,5-c]pyridin-3-yl)methyl]-1H-indazole-6-carboxamide]
882 nM | CCn1nc(C)cc1-c1nnc(-c2cc(C(N)=O)cc3c2cnn3[C@H]2CCCNC2)[nH]1 [ZZZ061, 4-[5-(1-ethyl-3-methyl-1H-pyrazol-5-yl)-4H-1,2,4-triazol-3-yl]-1-[(3S)-piperidin-3-yl]-1H-indazole-6-carboxamide]
> 900 nM | CCn1nc(C)c(F)c1-c1nc(CN)c(-c2nc(C(N)=O)cc3c2cnn3C)o1 [ZZZ045, 4-[4-(aminomethyl)-2-(1-ethyl-4-fluoro-3-methyl-1H-pyrazol-5-yl)-1,3-oxazol-5-yl]-1-methyl-1H-pyrazolo[4,3-c]pyridine-6-carboxamide]
> 990 nM | CCn1nc(C)cc1-c1n[nH]c(-c2cc(C(N)=O)cc3c2cnn3CCN2CCO[C@@H](C)[C@H]2C)n1 [ZZZ088, 1-{2-[(2S,3R)-2,3-dimethylmorpholin-4-yl]ethyl}-4-[3-(1-ethyl-3-methyl-1H-pyrazol-5-yl)-1H-1,2,4-triazol-5-yl]-1H-indazole-6-carboxamide]
> 990 nM | CCn1nc(C)c(F)c1-c1nc(-c2c(F)c(C(N)=O)cc3c2cnn3C)n(C)n1 [ZZZ130, 4-[3-(1-ethyl-4-fluoro-3-methyl-1H-pyrazol-5-yl)-1-methyl-1H-1,2,4-triazol-5-yl]-5-fluoro-1-methyl-1H-indazole-6-carboxamide]
> 990 nM | CCn1nc(C)cc1-c1nnc(-c2cc(C(N)=O)cc3c2cnn3[C@H]2CCCNC2)[nH]1 (racemic) [ZZZ069, 4-[5-(1-ethyl-3-methyl-1H-pyrazol-5-yl)-4H-1,2,4-triazol-3-yl]-1-[(3S)-piperidin-3-yl]-1H-indazole-6-carboxamide]
861 nM | CCn1nc(C)cc1-c1n[nH]c(-c2cc(C(N)=O)cc3c2cnn3CCN2CC(CO)OCC2C)n1 (centres unmarked) [ZZZ096, 4-[3-(1-ethyl-3-methyl-1H-pyrazol-5-yl)-1H-1,2,4-triazol-5-yl]-1-{2-[2-(hydroxymethyl)-5-methylmorpholin-4-yl]ethyl}-1H-indazole-6-carboxamide]
556 nM | CCn1nc(C)c(F)c1-c1nnc(-c2cc(C(N)=O)cn3cncc23)[nH]1 [ZZZ128, 8-[5-(1-ethyl-4-fluoro-3-methyl-1H-pyrazol-5-yl)-4H-1,2,4-triazol-3-yl]imidazo[1,5-a]pyridine-6-carboxamide]
861 nM | CCn1nc(C)cc1-c1nnc(-c2cc(C(N)=O)cc3c2cnn3CCN(C)CCOC)[nH]1 [ZZZ030, 4-[5-(1-ethyl-3-methyl-1H-pyrazol-5-yl)-4H-1,2,4-triazol-3-yl]-1-{2-[(2-methoxyethyl)(methyl)amino]ethyl}-1H-indazole-6-carboxamide]
> 990 nM | CCn1nc(CN)cc1-c1nc(-c2nc(C(N)=O)cc3c2cnn3C)n(C)n1 [ZZZ121, 4-{3-[3-(aminomethyl)-1-ethyl-1H-pyrazol-5-yl]-1-methyl-1H-1,2,4-triazol-5-yl}-1-methyl-1H-pyrazolo[4,3-c]pyridine-6-carboxamide]
> 990 nM | CCN(CCO)CCn1ncc2c(-c3nc(-c4cc(C)nn4CC)n[nH]3)cc(C(N)=O)cc21 [ZZZ112, 1-{2-[ethyl(2-hydroxyethyl)amino]ethyl}-4-[3-(1-ethyl-3-methyl-1H-pyrazol-5-yl)-1H-1,2,4-triazol-5-yl]-1H-indazole-6-carboxamide]
538 nM | CCn1nc(C)cc1-c1n[nH]c(-c2cc(C(N)=O)cc3c2cnn3CCN2CCO[C@H](CO)C2)n1 [ZZZ118, 4-[3-(1-ethyl-3-methyl-1H-pyrazol-5-yl)-1H-1,2,4-triazol-5-yl]-1-{2-[(2S)-2-(hydroxymethyl)morpholin-4-yl]ethyl}-1H-indazole-6-carboxamide]
> 990 nM | CCn1nc(C)cc1-c1nnc(-c2cc(C(N)=O)cc3c2cnn3CCCC2CCNCC2)[nH]1 [ZZZ077, 4-[5-(1-ethyl-3-methyl-1H-pyrazol-5-yl)-4H-1,2,4-triazol-3-yl]-1-[3-(piperidin-4-yl)propyl]-1H-indazole-6-carboxamide]
447 nM | CCn1nc(C)cc1-c1nnc(-c2cc(C(N)=O)cc3c2cnn3[C@H](C)CCN2CCOCC2)[nH]1 (racemic) [ZZZ022, 4-[5-(1-ethyl-3-methyl-1H-pyrazol-5-yl)-4H-1,2,4-triazol-3-yl]-1-[(2R)-4-(morpholin-4-yl)butan-2-yl]-1H-indazole-6-carboxamide]
> 990 nM | CCn1nc(C)cc1-c1nnc(-c2cc(C(N)=O)cc3c2cnn3[C@H]2C[C@@H](NC)C2)[nH]1 [ZZZ081, 4-[5-(1-ethyl-3-methyl-1H-pyrazol-5-yl)-4H-1,2,4-triazol-3-yl]-1-[(1s,3s)-3-(methylamino)cyclobutyl]-1H-indazole-6-carboxamide]
> 990 nM | CCn1nc(C)cc1-c1nnc(-c2cc(C(N)=O)cc3c2cnn3CC[C@@H]2CCN(C)C2)[nH]1 [ZZZ035, 4-[5-(1-ethyl-3-methyl-1H-pyrazol-5-yl)-4H-1,2,4-triazol-3-yl]-1-{2-[(3S)-1-methylpyrrolidin-3-yl]ethyl}-1H-indazole-6-carboxamide]
